Test results taken from patent US12377069B2, “Compounds, compositions, methods of using, and methods for preparing compounds” (UNIVERSITY OF LOUISVILLE RESEARCH FOUNDATION, INC., priority 2018, dated 2025).

Tests used:
[1] = tested on: C57BL/6, Nrf2^−/− and AhR^−/− mice; assay: Colon protein/mRNA expression after 7 days of oral treatment; type: in vivo, mouse; conditions: for AhR expression in colons of treated mice / Nrf2 and HO1 in the colons of wild type mice / expression of Cldn4 in the colons of mice: oral 20 mg/kg daily, 7 days; for Nrf2 and tight junction proteins (Cldn4, NQO1, Ocln, ZO1 and TJP3) in WT mice / Nrf2 and tight junction proteins in Nrf2^−/− and AhR^−/− mice: orally 20 mg/kg daily, seven days
Procedure: Immunoblots (Western blots): The total protein lysates were collected either from colon tissue/cells using radioimmunoprecipitation assay (RIPA) buffer (Sigma-Aldrich, USA) and quantified using BCA protein quantification kit (Thermo Scientific) as per instructional manual. Total protein (20-50 μg) of was resolved on NuPAGE™ 4-12% Bis-Tris gel (Novex Life technologies) and transferred to polyvinylidene difluoride membrane (0.22 μm pore; Millipore, USA). After blocking with 5% (w/v) skim milk powder (containing 1×TBS) for 1 h, the membrane was then incubated with respective antibodies at 4° C. overnight (dilutions of respective antibodies is given in Table A1). Next day, respective secondary antibody conjugated with Horseradish peroxidase were probed and the chemiluminescent substrate was used to detect the protein bands (ImageQuant LAS 4000). Densitometry analysis of bands were done using ImageJ software. Antibodies for Cldn4, Ocln, Cldn1, Cyp1A1, AhR, HO1, NQO1, Keap1, β-actin and Lamin B were purchased from Santa Cruz Biotechnologies (USA) and Nrf2 from Novus Biologicals (USA).
Tissue processing for RNA and protein analysis: Mice were treated with as described in results section. Mice were euthanized with CO2 asphyxiation followed by cervical dislocation. Colon was dissected out and luminal contents were flushed out with cold PBS (containing PMSF and Sodium orthvandate). Small portion of colon was snap frozen in liquid nitrogen and stored at −80° C. for RNA analysis. For preparation of protein samples, colon was opened longitudinally and mucosa was scraped in ice-cold 1×PBS using pre-chilled glass slide and centrifuged at 300×g for 10 min at 4° C. Supernatant was discarded and pellet was suspended in RIPA buffer (containing 1× protease inhibitor) and vortexed at high speed. After 30 min incubation on ice, samples were centrifuged at 13,000×g for 20 min at 4° C. Supernatant was collected and protein was quantified using BCA protein quantification kit. The lysates were used appropriately for Western blots.

[2] = tested on: MRP2; assay: MRP2 expression in 5FU-R colon cancer cells; type: cell-based; conditions: SW-5FUR colon cancer cell lines
Procedure: FIG. 43: UroA/UAS03 down regulate drug transporters. (A) Expression of MRP2 is measured by real time PCR upon treating with indicated doses of UroA or UAS03 in SW-5FUR colon cancer cell lines. (B) MRP2 activity is measured using CDCFDA (diacetate ester of 5(6)-carboxy-2′,7′-dichlorofluorescein) transporter assay in SW-FUR colon cancer cell lines upon treating with UroA/USA03.
This could result in increase in intracellular drug concentration leading to increase in cell death/decreased proliferation of drug resistant cancer cells upon treatment with 5FU and UroA/UAS03.

[3] = tested on: Caco2 or HT29 cells; assay: In vitro FITC-dextran permeability assay; type: cell-based, human; conditions: pretreatment 50 μM 24 h; LPS 50 ng/ml 2 h
Procedure: In vitro permeability study: For in vitro cellular permeability studies, Caco2 cells or HT29 cells (2×10^4 cells/cm^2) were seeded in 24-well Transwell® plates (Cornings; USA), on polyester membrane filters (pore size 0.4 μm, surface area 1.12 cm^2) (KOWAPRADIT et al. (2010) “In vitro permeability enhancement in intestinal epithelial cells (Caco-2) monolayer of water soluble quaternary ammonium chitosan derivatives” Aaps Pharmscitech, Vol. 11, pp. 497-508). Culture medium was added to both apical and basal chamber and the medium was changed every other day up to 21 days for Caco2 cells or 5-7 days for HT29 cells. For Caco2 cells, transepethelial electrical resistance (TEER) was calculated using EMD Millipore Millicell-ERS2 Volt-Ohm Meter (Millipore). Filters (with cell monolayer) showing more than 600 Ω·cm^2 were used for permeability study. After cells reach desired confluence (monolayered cells), cells were pre-treated with vehicle (0.01% DMSO) UroA (50 μM) and UAS03 […] for 24 hours. After treatment, monolayer was washed with PBS to remove any residual drug and 200 μL of LPS (50 ng/ml in HBSS) was added to each well and incubated for 2 hours. […] After 2 h, a sample from the basal chamber was withdrawn and FD4 concentration was determined using fluorescence 96-wells plate reader at excitation and emission wavelengths were 480 and 525 nm, respectively.

SMILES	AhR expression in colons of treated mice [1]	Nrf2 and HO1 in the colons of wild type mice [1]	expression of Cldn4 in the colons of mice [1]	Nrf2 and tight junction proteins (Cldn4, NQO1, Ocln, ZO1 and TJP3) in WT mice [1]	Nrf2 and tight junction proteins in Nrf2^−/− and AhR^−/− mice [1]	expression of drug transporters (MRP2) [2]	LPS induced leakage of FITC-dextran into bottom chambers [3]
Oc1ccc2c(c1)COc1cc(O)ccc1-2 [UAS03, 6H-benzo[c]chromene-3,8-diol]	upregulated	upregulated	elevated expression	upregulated	did not appear to induce	reduce the expression	inhibited LPS induced leakage
O=c1oc2cc(O)ccc2c2ccc(O)cc12 [UroA, 3,8-dihydroxy-6H-dibenzo[b,d]pyran-6-one]	upregulated	upregulated	elevated expression	upregulated	did not appear to induce	reduce the expression	inhibited LPS induced leakage
